Converted amounts (≈) assume the structure as drawn. Read-outs that look alike come from different tables or passages of the source.

The test system of experiment [1] is HT29 cells. As to the kind of experiment: Hoechst-stained fluorescence microscopy (nuclear morphology). Type of experiment: cell-based, human. As to conditions: HT29, 72 h. From the text:
To assess the apoptosis induction capacity of compounds 5 and 13 on HT29 cells, we performed Hoechst […] nuclear staining, a well-established method for visualizing the morphological changes associated with apoptosis. Two principal morphological characteristics can be observed in the apoptosis process, chromatin condensation and nuclei fragmentation. Hoechst is a dye capable of penetrating cells and binding to double-stranded DNA, emitting blue light that can be visualized by using fluorescence microscopy.
The morphological changes were analyzed using Hoechst-stained fluorescence microscopy. For the analysis, 15 × 10^4 HT29 cells were plated on a coverslip within a 24-well plate. […] The cells were washed twice with PBS, treated with cold MeOH for 3 min, washed again with PBS, and then incubated in 500 μL of Hoechst solution (50 ng/mL) in PBS for 15 min in the dark. Finally, the samples were visualized through fluorescent microscopy (DMRB, Leica Microsystems, Wetzlar, Germany) under a DAPI filter.

Experiment [2] deals with HT29 cells. As to the kind of experiment: Mitochondrial membrane potential by flow cytometry (Rh123/DHR). Type of experiment: cell-based, human. The following applies: HT29, 72 h. From the text: Apoptotic effects induced by anticancer agents can be mediated through two major pathways: intrinsic and extrinsic apoptotic pathways. The intrinsic pathway involves the disruption of the mitochondrial membrane and changes in the mitochondrial membrane potential (MMP), while the extrinsic pathway leads to apoptosis without initial MMP alterations. […] Further investigations are necessary to elucidate the detailed molecular mechanisms underlying their apoptotic effect.
We analyzed the electrochemical gradient across the mitochondrial membrane via analytical flow cytometry, using dihydrorhodamine (DHR). A total of 5 × 10^4 HT29 cells were plated in 24-well plates for this assay. […] Next, the medium was replaced by adding fresh solution with DHR to a final concentration of 5 μg/mL. The cells were incubated at 37 °C for 1 h, washed, and resuspended in PBS with 5 μg/mL of PI. The fluorescence intensity was measured using a FACScan flow cytometer (fluorescence-activated cell sorter). The experiments were performed two times, each with three replications per assay.

Experiment [3] concerns HT29 cells. In words: HT29 cell cycle analysis (PI flow cytometry). The class given is cell-based, human. The following applies: HT29, 72 h. The protocol: Flow cytometry was employed to assess the impact of compounds 5 and 13 on the cell cycle profiles of HT29 cells after 72 h of treatment; by using propidium iodide (PI) incorporation, whose fluorescence directly correlated with DNA content, we analyzed the distribution of cells in different cell cycle phases.
The amount of DNA in the different phases of the cell cycle (G0/G1, S, and G2/M) was quantified using flow cytometry after staining with propidium iodide (PI). HT29 cells were seeded at a density of 5 × 10^4 cells per well in 24-well plates containing 1.5 mL of culture medium. […] Next, the cells were washed twice with PBS, trypsinized, and resuspended in 1 × TBS (10 mM Tris and 150 mM NaCl). After this, Vindelov buffer (100 mM Tris, 100 mM NaCl, 10 mg/mL Rnase, 1 mg/mL PI, and 0.1% Triton x-100, pH 8) was added. Finally, the cells were kept on ice and stained with 20 μL of 1 mg/mL PI solution before being measured. Each experiment analyzed approximately 10 × 10^3 cells. The experiments were performed twice, each with three replications per assay. The samples were analyzed using a flow cytometer, and the number of cells in each stage of the cell cycle was estimated by […] cell sorting (FACS) at 488 nm in an Epics XL flow cytometer (Coulter Corporation, Hialeah, FL, USA).

Experiment [4] relates to human colon adenocarcinoma (HT29). In words: MTT cell viability assay, HT29. Type of experiment: cell-based. As to conditions: for IC80: 80% growth inhibition. The source says:
In this study, we employed the MTT (3-(4,5-dimethyl thiazol-2-yl)-2,5-diphenyltetrazolium bromide) colorimetric assay to evaluate the cytotoxic activity of selected abietanes (compounds 5, 7, 13, 17, and 19) against three tumor cell lines: human colon adenocarcinoma (HT29), human hepatocarcinoma (HepG2), and murine melanoma (B16–F10). The MTT assay relied on the conversion of MTT to formazan by viable cells, with the formazan concentration proportional to the number of viable cells. The concentrations required for 50 and 80% growth inhibition (IC50 and IC80) were determined for each compound.
The human colorectal adenocarcinoma cell line HT29 (ECACC no. 9172201; ATCC no. HTB-38), the human hepatocarcinoma cell line HepG2 (ECACC no. 85011430), the mouse melanoma cells B16–F10 (ATCC no. CRL-6475), and the murine monocyte/macrophage like RAW 264.7 cell line (ATCC no, TIB-71) were obtained from the cell bank of the University of Granada, Spain. The tumor cell lines were cultured in DMEM (Dulbecco’s modified Eagle’s medium) supplemented with 2 mM glutamine, 10% heat-inactivated FCS (fetal calf serum), and 50 μg/mL of gentamicin (for all cancer cell lines). The RAW 264.7 cell line was cultured in RPMI1640 medium, supplemented with 2 mM glutamine, 10% heat-inactivated FCS, and 50 μg/mL of gentamicin. All cell lines were incubated at 37 °C, in an atmosphere of 5% CO2 and 95% humidity. The culture media were changed every 48 h, and the confluent cultures were separated with a trypsin solution (0.25% EDTA). In all experiments, monolayer cells were grown to 80–90% confluence in sterile cell culture flasks.
The effects of the compounds on the cell viability were established using the MTT method (Sigma, St. Louis, MO, USA). The cytotoxicity of the compounds was assessed by measuring the absorbance of MTT dye staining of metabolically competent cells. The cells were cultivated in 96-well plates at 6.0 × 10^3 cells/mL for the HT29 and RAW 264.7 cell lines, at 5.0 × 10^3 cells/mL for B16–F10 cells, and 15.0 × 10^3 cells/mL for the HepG2 cell line, with a final volume of 200 μL per well being incubated with the different products (0–100 μg/mL). After 72 h, 100 μL of MTT solution (0.5 mg/mL) in 50% of PBS and 50% of the medium was added to each well. Following incubation for 1.5 h, formazan was resuspended in 100 μL of DMSO, and each concentration was tested in triplicate. The cell viability relative to the untreated control cells was determined by measuring the absorbance at 570 nm using an ELISA plate reader (Tecan Sunrise MR20–301, TECAN, Grödig, Austria).

The mark [5] stands for this setting: Homo sapiens, HT-29, 72 h, read-out: IC50.

`CC(C)C1=CC2=C(C(=O)C1=O)C1=CC(=O)CC(C)(C)[C@@]1(C)C=C2` [Compound 5, Pygmaeocin B]: the “nuclear morphology, Hoechst staining” value is “loss of normal nuclear architecture and chromatin condensation” with HT29 cells [1] (IC50 concentration); “formation of pyknotic or contracted nuclei followed by fragmentation into apoptotic bodies” with HT29 cells [1] (IC80 concentration). Also, the “decrease in positive Rh123-stained cells with regard to untreated control” value in the experiment on HT29 cells [2] (IC50 concentration) is listed as 54%; in the experiment on HT29 cells [2] (IC80 concentration), 61%. Besides, the results for the “increase in the cell population in the S phase compared with the control” value with HT29 cells [3] (IC50 dose) and in the experiment with HT29 cells [3] (IC80 dose) were 4% and 10%, respectively. The compound further came in with an IC80 in experiment [4] (Homo sapiens, HT-29, 72 h) of 9.73 ± 1.18 µg/mL (≈ 31.3 µM). Further, the half-maximal inhibitory concentration (IC50) in experiment [4] (setting [5]) came out at 6.69 ± 1.18 µg/mL (≈ 21.6 µM).
In the case of `CC(C)C1=CC2=C(C(=O)C1=O)[C@@]1(C)CCCC(C)(C)[C@@H]1CC2` [Compound 13], the “nuclear morphology, Hoechst staining” value with HT29 cells [1] (IC50 concentration) is “loss of normal nuclear architecture and chromatin condensation”; in the experiment with HT29 cells [1] (IC80 concentration), “formation of pyknotic or contracted nuclei followed by fragmentation into apoptotic bodies”. For the same compound, the entries for the “decrease in positive Rh123-stained cells with regard to untreated control” value in the experiment with HT29 cells [2] (IC50 concentration) and with HT29 cells [2] (IC80 concentration) were “around 40%” and 57%, respectively. Moreover, the “increase in the cell population in the S phase compared with the control” value in the experiment with HT29 cells [3] (regardless of the administered dose (IC50 and IC80)) turned out to be 10%. In addition, the half-maximal inhibitory concentration (IC50) in experiment [4] (72 h, listed as Precursor (13)) is 2.67 ± 0.82 µg/mL (≈ 8.89 µM); in experiment [4] (setting [5]), 2.7 ± 0.8 µg/mL (≈ 8.99 µM). This compound also returned an IC80 in experiment [4] (Homo sapiens, HT-29, 72 h) of 5.19 ± 0.68 µg/mL (≈ 17.3 µM).

These data come from article PMC10487843, “Evaluation of Anticancer and Anti-Inflammatory Activities of Some Synthetic Rearranged Abietanes” (International Journal of Molecular Sciences, 2023).
